Consider three compounds from US8318792B2, “Therapeutic agent for amyotrophic lateral sclerosis” (Nippon Medical School Foundation, priority 2006, dated 2012).

One assay deals with G1H-G93A transgenic mice. The assay can be described thus: Clinical symptomatological evaluation (day of onset, survival period, disease period, stage periods). The assay is classed as in vivo, mouse. The procedure: 1) The procedure of concentration adjustment, and the amount and the procedure of administration of the compound (a) were as described below. As a base, 0.5% methylcellulose is prepared. 5 mg of the compound (a) is pulverized in an agate mortar, and then a small amount of 0.5% methylcellulose is added to form a complete suspension. Subsequently, a small amount of 0.5% methylcellulose is added gradually, so that finally 5 mg of the compound (a) is suspended in 10 mL of 0.5% methylcellulose. A sample of 5 mg of compound (a)/10 mL of 0.5% methylcellulose (5 mg/10 mL) was prepared by the above-described procedure, and thus the compound (a) was orally administered once a day in a dose of 5 mg per kg of the mouse body weight (5 mg/kg).
As the experimental animal, male transgenic mice over-expressing a high copy number (25 copies) of mutated human SOD1 gene with a G93A point mutation, i.e., B6SJL-TgN [SOD1-G93A]1Gur (G1H-G93A transgenic mice, JR2726; Hemizygote) (Gurney M E, et al., Science, 264, 1772-1775, 1994), were purchased from Jackson Laboratory (Bar Harbor, USA) and used. At the same time, wild-type male mice from the same litter, B6SJL-TgN[SOD1-G93A]1Gur (Wild-type), were also purchased from Jackson Laboratory and used.
The mice were subjected to a clinical symptomatological evaluation everyday. The clinical symptomatological evaluation was performed from one week after the arrival from Jackson Laboratory. […] The day of onset, the survival period and the disease period were indicated by the number of days. In regard to the indication of the number of days of the disease period, one day (one disease day) corresponds to within 24 hours from the onset (the “onset” is determined by the observation of the clinical symptomatological evaluation stage 1), and two days (two disease days) corresponds to more than 24 hours after and within 48 hours from the onset. Subsequent disease days after the onset were determined in the same manner.
The mice were divided into seven experimental groups, to which a placebo, the compound (a), compound (b), compound (c) or allopurinol was administered. That is, the seven groups consist of: an experimental group administered with placebo; a treatment experimental group administered with compound (a) before onset; a treatment experimental group administered with compound (a) after onset; a treatment experimental group administered with compound (b) before onset; a treatment experimental group administered with compound (c) before onset; a treatment experimental group administered with compound (c) after onset; and a treatment group administered with allopurinol before onset. Details of the respective groups will be described in the following.
Ten G1H-G93A transgenic mice were used. From the 80th day after birth, 5 mg/kg of the compound (a) was orally administered everyday. […]
Ten G1H-G93A transgenic mice were used. From the 80th day after birth, 5 mg/kg of the compound (b) was orally administered everyday.
Ten G1H-G93A transgenic mice were used. From the 80th day after birth, 5 mg/kg of the compound (c) was orally administered everyday. […]
Ten G1H-G93A transgenic mice were used. From the 80th day after birth, 5 mg/kg of allopurinol was orally administered everyday.
In regard to the results of the clinical symptomatological evaluation, the day of onset, the survival period (days taken to show quadriplegia and to reach the moribund state), the disease period (days taken to show quadriplegia and to reach the moribund state, from the day of onset), and the time periods for the respective stages of the clinical symptomatological evaluation, were indicated by the average±standard deviation. In regard to the results of the exercise tolerance test, the score values of the respective exercise tolerance tests, including the extension reflex test, inclined plane test, footprint test, rotarod test and beam balance test, were indicated by the average±standard deviation. […]

The subject of assay [1] is neurotoxin in cerebrospinal fluid from ALS patients. The conditions noted are these: in vitro; Non-Patent Document 3; cited from earlier work.
Assay [2] concerns transgenic mouse which expresses human mutated SOD1 gene. The conditions noted are these: Non-Patent Document 9, cited from earlier work.
[3] abbreviates: 5 mg/kg oral daily from 80th day after birth (before onset), Mann-Whitney's U test, log-rank test.
Where [4] appears, read: 5 mg/kg oral once a day from 80th day after birth (before onset), average±SD.

On to `Oc1ncnc2[nH]ncc12` [allopurinol, reference compound], for which, in the assay on G1H-G93A transgenic mice (5 mg/kg oral daily from 80th day after birth (before onset), Mann-Whitney's U test), the “time periods for the respective stages in comparison to placebo group” value is given as “not found to have the extended period of respective stages with significant differences”. Moreover, in the assay with G1H-G93A transgenic mice (setting [3]), the “disease period extending effect in comparison to placebo group” value is “did not lead to the onset delaying effect, survival period extending effect or disease period extending effect”; the “onset delaying effect in comparison to placebo group” value was “did not result in significant delaying of the day of onset”; the “survival period extending effect in comparison to placebo group” value is given as “did not lead to the onset delaying effect, survival period extending effect or disease period extending effect”. Besides, in the assay on G1H-G93A transgenic mice (setting [4]), the day of onset is 102.2 ± 4.4 days, the disease period came to 21.0 ± 3.6 days, the survival period came out at 122.2 ± 1.3 days and the “time period of clinical symptomatological stage 1” value is 6.8±1.1 days. Also, in the assay with G1H-G93A transgenic mice (setting [4]), the “time period of clinical symptomatological stage 2” value is given as 5.4±1.3 days, the “time period of clinical symptomatological stage 3” value came to 4.4±1.2 days, the “time period of clinical symptomatological stage 4” value turned out to be 2.9±0.7 days and the “time period of clinical symptomatological stage 5” value is on record as 1.5±0.5 days. In assay [1], the “action on the neurotoxin in cerebrospinal fluid from ALS patients” value is “counteract the neurotoxin”.
Regarding `[O-][n+]1cccc(/C(Cl)=N/OC[C@H](O)CN2CCCCC2)c1` [arimoclomol], the “effect on life span in the transgenic mouse” value in assay [2] is on record as “prolongation of life”. The ALS treating effect result in assay [2] (intraperitoneal administration in an amount of 10 mg/kg) is recorded as “effective”.
On to vitamin E, for which the “action on the neurotoxin in cerebrospinal fluid from ALS patients” value in assay [1] was “counteract the neurotoxin”.
